The values below come from US10301292B2, “Bicyclic compound” (Takeda Pharmaceutical Company Limited, priority 2014, dated 2019).

The test system of experiment [1] is human renal cancer cell line 786-O. The experiment is described as follows: Antitumor action on human renal cancer cell line 786-O tumor bearing mouse. The class given is in vivo. To be noted: oral, 28 days, 786-O tumor bearing BALB/c nude mouse. How it is done:
The antitumor action of the compound of the present invention on human renal cancer cell line 786-O tumor bearing mouse was evaluated by the following method.
Human renal cancer cell line 786-O (purchased from ATCC (American Type Culture Collection)) was transplanted to 6-week-old BALB/c female nude mouse (Shanghai SINO-British SIPPR/BK Lab Animal Ltd) at 3.0×10^6 cells by subcutaneous injection. After transplantation, the engrafted tumor was observed, the tumor diameter was measured on day 10 post-transplantation, and the tumor volume was calculated by the following formula. tumor volume=major axis×minor axis×minor axis×(1/2)
The mice having engrafted tumor with a volume size up to 150 mm^3 were selected and used for the experiment (8 per group). The test compound was suspended in 0.5% methylcellulose solution, and orally administered for 28 days at the dose and number of administration shown in the following Table. Finally, for the measurement of the drug effect, the tumor volume was calculated from the tumor diameter of the day before the start of the administration and the final day of the administration, and the tumor growth of the test compound administration group compared to that of the control administration group (T/C) was calculated by the following formula. T/C (%)=(tumor volume after completion of administration in test compound administration group−tumor volume before start of administration in test compound administration group)/(tumor volume after completion of administration in control administration group−tumor volume before start of administration in control administration group))×100
T/C (%) relative to human renal cancer cell line 786-O tumor bearing mouse at each dose and number of administration of the test compound (specifically, compound shown in Example 98) is shown below.

Experiment [2] deals with collagen I gene expression in the liver. Kind of experiment: Effect on liver fibrosis caused by non-alcoholic steatohepatitis (liver collagen I gene expression). It is filed as in vivo. The following applies: LDL receptor deficient mouse, choline-deficient amino acid diet; oral once per day for 3 weeks; normalized by GAPDH; P<0.05 vs. control (FIG. 1). An excerpt:
The effect of the present compound on liver fibrosis caused by non-alcoholic steatohepatitis was verified by the following method.
For efficacy evaluation of the antifibrotic action, 9-week-old, male, homo low-density lipoprotein receptor deficient mouse was used. The low-density lipoprotein receptor deficient mouse was purchased from Jackson Laboratories (Bar Harbor, Me., USA) and bred in Takeda Pharmaceutical Industry. To induce non-alcoholic steatohepatitis, a choline-deficient amino acid diet (A08111307, Research Diets, New Brunswick, N.J., USA) was fed.
Before administration of the test compound (specifically, compound shown in Example 98), a choline-deficient amino acid diet was fed for one week, and the drug administration was started. […]
After administration for 3 weeks, the mouse was sacrificed by euthanasia under isoflurane anesthesia under non-fasting and the liver was removed. […] Using RNeasy Mini Kit (Qiagen, Valencia, Calif., USA), the total RNA was purified, cDNA was prepared using High Capacity cDNA Reverse Transcription Kit (PN4368814, Applied Biosystems, Foster City, Calif., USA), and collagen I expression was quantified (collagen type I alpha 1, Part Number 4351370, Applied Biosystems) by the quantitative PCR method (TaqMan Gene Expression Master Mix, PN4369016, Applied Biosystems). […]

Molecules are shown by their SMILES.

As for `CC(NC(N)=O)c1ccc2nc(-c3ccc(Oc4cccc(OCC5CC5)c4)nc3)oc2c1` (stereo not shown) [Example 98, 1-(1-(2-(6-(3-(cyclopropylmethoxy)phenoxy)pyridin-3-yl)-1,3-benzoxazol-6-yl)ethyl)urea], the “T/C (%)” value in experiment [1] (0.3 mg/kg, 2 times per day) is given as 50.6%; in experiment [1] (1 mg/kg, 2 times per day), 37.0%; in experiment [1] (3 mg/kg, 2 times per day), 31.1%; in experiment [1] (10 mg/kg, 2 times per day) it was 4.5%; in experiment [1] (20 mg/kg, 1 time per day) it was 19.0%; in experiment [1] (30 mg/kg, 2 times per day), 0.5%. Further, the “expression level of collagen I gene in the liver of a non-alcoholic steatohepatitis model” value in experiment [2] was “significantly suppressed”.
